{"source": "patent US20260207615A1", "about": "“FLUOROPYRIDOPYRIMIDINE AND FLUOROQUINAZOLINE DERIVATIES AND METHODS OF USE THEREOF” (Frontier Medicines Corporation, priority 2022, published 2026)", "molecular_target": "T1, KRAS G12C and cRAF interaction (Homo sapiens, UniProt P01116, C118S/C51S/C80L/G12C)", "T1 construct": "truncated version comprising amino acids 1-169", "T1 sequence (P01116 1-169 isoform P01116-2 G12C/C51S/C80L/C118S)": "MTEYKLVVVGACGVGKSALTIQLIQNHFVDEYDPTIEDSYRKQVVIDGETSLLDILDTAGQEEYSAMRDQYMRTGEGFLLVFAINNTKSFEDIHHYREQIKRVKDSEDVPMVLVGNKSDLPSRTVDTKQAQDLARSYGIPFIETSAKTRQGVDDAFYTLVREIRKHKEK", "assay": "Inhibition of KRAS G12C and cRAF binding (AlphaScreen)", "format": "biochemical", "conditions": "KRAS G12C (Cys-light, aa 1-169) preloaded with GMPPNP, cRaf RBD (aa 50-131), 2 hours incubation", "in_short": "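Biotin-AviTag KRAS G12C (Cys-light C51S/C80L/C118S, aa 1-169, GMPPNP-loaded; 0.5 nM final)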", "data": [{"smiles": "CN(C)C/C=C/C(=O)N1CCN(c2nc(OC[C@@]34CCCN3C[C@H](F)C4)nc3c(F)c(-c4cccc5cccc(Cl)c45)ncc23)CC12COC2", "note": "[Example 25, (E)-1-(8-(7-(8-chloronaphthalen-1-yl)-8-fluoro-2-(((2R,7aS)-2-fluorotetrahydro-1H-pyrrolizin-7a(5H)-yl)methoxy)pyrido[4,3-d]pyrimidin-4-yl)-2-oxa-5,8-diazaspiro[3.5]nonan-5-yl)-4-(dimethylamino)but-2-en-1-one]", "values": [{"measurement": "IC50", "value": "10 to 100", "unit": "nM"}]}, {"smiles": "CN1CC[C@@H]1/C=C/C(=O)N1CCN(c2nc(OC[C@@]34CCCN3C[C@H](F)C4)nc3c(F)c(-c4cccc(Cl)c4C(F)(F)F)ncc23)CC12COC2", "note": "[Example 76]", "values": [{"measurement": "IC50", "value": "≥ 500", "unit": "nM"}]}, {"smiles": "C#Cc1c(F)ccc2cccc(-c3ncc4c(N5CCN(C(=O)/C=C/CN6CC[C@@H](F)C6)C6(COC6)C5)nc(OC[C@@]56CCCN5C[C@H](F)C6)nc4c3F)c12", "note": "[Example 44, (E)-1-(8-(7-(8-ethynyl-7-fluoronaphthalen-1-yl)-8-fluoro-2-(((2R,7aS)-2-fluorotetrahydro-1H-pyrrolizin-7a(5H)-yl)methoxy)pyrido[4,3-d]pyrimidin-4-yl)-2-oxa-5,8-diazaspiro[3.5]nonan-5-yl)-4-((R)-3-fluoropyrrolidin-1-yl) but-2-en-1-one]", "values": [{"measurement": "IC50", "value": "< 10", "unit": "nM"}]}, {"smiles": "CN1CC[C@@H]1/C=C/C(=O)N1CCN(c2nc(OC[C@@]34CCCN3C[C@H](F)C4)nc3c(F)c(-c4cccc5ccc(F)c(F)c45)ncc23)CC12COC2", "note": "[Example 67]", "values": [{"measurement": "IC50", "value": "10 to 100", "unit": "nM"}]}, {"smiles": "Cc1cc(/C=C(\\F)C(=O)N2CCN(c3nc(OC[C@@]45CCCN4C[C@H](F)C5)nc4c(F)c(-c5cccc6ccc(F)c(F)c56)ncc34)CC23COC3)nc(C)n1", "note": "[Example 59, (Z)-1-(8-(7-(7,8-difluoronaphthalen-1-yl)-8-fluoro-2-(((2R,7aS)-2-fluorotetrahydro-1H-pyrrolizin-7a(5H)-yl)methoxy)pyrido[4,3-d]pyrimidin-4-yl)-2-oxa-5,8-diazaspiro[3.5]nonan-5-yl)-3-(2,6-dimethylpyrimidin-4-yl)-2-fluoroprop-2-en-1-one]", "values": [{"measurement": "IC50", "value": "< 10", "unit": "nM"}]}, {"smiles": "C=CC(=O)N1CCN(c2nc(OC[C@@]34CCCN3C[C@H](F)C4)nc3c(F)c(-c4cccc5ccc(F)c(F)c45)ncc23)C[C@@]12CCOC2", "note": "[Example 80]", "values": [{"measurement": "IC50", "value": "10 to 100", "unit": "nM"}]}, {"smiles": "C=CC(=O)N1CCN(c2nc(OC[C@@]34CCCN3C[C@H](F)C4)nc3c(F)c(-c4cc(O)cc(Cl)c4C4CC4)ncc23)CC12COC2", "note": "[Example 31, 1-(8-(7-(3-chloro-2-cyclopropyl-5-hydroxyphenyl)-8-fluoro-2-(((2R,7aS)-2-fluorotetrahydro-1H-pyrrolizin-7a(5H)-yl)methoxy)pyrido[4,3-d]pyrimidin-4-yl)-2-oxa-5,8-diazaspiro[3.5]nonan-5-yl) prop-2-en-1-one]", "values": [{"measurement": "IC50", "value": "< 10", "unit": "nM"}]}, {"smiles": "C=CC(=O)N1CCN(c2nc(OC[C@@]34CCCN3C[C@H](F)C4)nc3c(F)c(-c4c(Cl)c(C)cc5[nH]ncc45)ncc23)CC12COC2", "note": "[Example 51, 1-(8-(7-(5-chloro-6-methyl-1H-indazol-4-yl)-8-fluoro-2-(((2R,7aS)-2-fluorotetrahydro-1H-pyrrolizin-7a(5H)-yl)methoxy)pyrido[4,3-d]pyrimidin-4-yl)-2-oxa-5,8-diazaspiro[3.5]nonan-5-yl) prop-2-en-1-one]", "values": [{"measurement": "IC50", "value": "10 to 100", "unit": "nM"}]}, {"smiles": "C=CC(=O)N1CCN(c2nc(OC[C@@]34CCCN3C[C@H](F)C4)nc3c(F)c(-c4cccc5cccc(Cl)c45)ncc23)CC12COC2", "note": "[Example 17, 1-(8-(7-(8-chloronaphthalen-1-yl)-8-fluoro-2-(((2R,7aS)-2-fluorotetrahydro-1H-pyrrolizin-7a(5H)-yl)methoxy)pyrido[4,3-d]pyrimidin-4-yl)-2-oxa-5,8-diazaspiro[3.5]nonan-5-yl) prop-2-en-1-one]", "values": [{"measurement": "IC50", "value": "10 to 100", "unit": "nM"}]}, {"smiles": "O=C(/C=C/CN1[C@@H]2CC[C@H]1COC2)N1CCN(c2nc(OC[C@@]34CCCN3C[C@H](F)C4)nc3c(F)c(-c4cccc5ccc(F)c(Cl)c45)ncc23)CC12COC2", "note": "[Example 23, (E)-4-((1R,5S)-3-oxa-8-azabicyclo[3.2.1]octan-8-yl)-1-(8-(7-(8-chloro-7-fluoronaphthalen-1-yl)-8-fluoro-2-(((2R,7aS)-2-fluorotetrahydro-1H-pyrrolizin-7a(5H)-yl)methoxy)pyrido[4,3-d]pyrimidin-4-yl)-2-oxa-5,8-diazaspiro[3.5]nonan-5-yl) but-2-en-1-one]", "values": [{"measurement": "IC50", "value": "< 10", "unit": "nM"}]}, {"smiles": "C#Cc1c(F)ccc2cccc(-c3ncc4c(N5CCN(C(=O)/C=C/CN6C[C@H]7C[C@@H]6CO7)C6(COC6)C5)nc(OC[C@@]56CCCN5C[C@H](F)C6)nc4c3F)c12", "note": "[Example 46, (E)-4-((1R,4R)-2-oxa-5-azabicyclo[2.2.1]heptan-5-yl)-1-(8-(7-(8-ethynyl-7-fluoronaphthalen-1-yl)-8-fluoro-2-(((2R,7aS)-2-fluorotetrahydro-1H-pyrrolizin-7a(5H)-yl)methoxy)pyrido[4,3-d]pyrimidin-4-yl)-2-oxa-5,8-diazaspiro[3.5]nonan-5-yl) but-2-en-1-one]", "values": [{"measurement": "IC50", "value": "< 10", "unit": "nM"}]}, {"smiles": "C#Cc1c(F)ccc2cccc(-c3ncc4c(N5CCN(C(=O)/C=C/c6cc(C)nc(C)n6)C6(COC6)C5)nc(OC[C@@]56CCCN5C[C@H](F)C6)nc4c3F)c12", "note": "[Example 48, (E)-3-(2,6-dimethylpyrimidin-4-yl)-1-(8-(7-(8-ethynyl-7-fluoronaphthalen-1-yl)-8-fluoro-2-(((2R,7aS)-2-fluorotetrahydro-1H-pyrrolizin-7a(5H)-yl)methoxy)pyrido[4,3-d]pyrimidin-4-yl)-2-oxa-5,8-diazaspiro[3.5]nonan-5-yl) prop-2-en-1-one]", "values": [{"measurement": "IC50", "value": "10 to 100", "unit": "nM"}]}, {"smiles": "O=C(C#CCN1CCOCC1)N1CCN(c2nc(OC[C@@]34CCCN3C[C@H](F)C4)nc3c(F)c(-c4cccc5cccc(Cl)c45)ncc23)CC12COC2", "note": "[Example 16, 1-(8-(7-(8-chloronaphthalen-1-yl)-8-fluoro-2-(((2R,7aS)-2-fluorotetrahydro-1H-pyrrolizin-7a(5H)-yl)methoxy)pyrido[4,3-d]pyrimidin-4-yl)-2-oxa-5,8-diazaspiro[3.5]nonan-5-yl)-4-morpholinobut-2-yn-1-one]", "values": [{"measurement": "IC50", "value": "100 to 500", "unit": "nM"}]}, {"smiles": "CCc1c(F)ccc2cccc(-c3ncc4c(N5CCN(C(=O)/C(F)=C/c6ccnc(C)n6)C6(COC6)C5)nc(OC[C@@]56CCCN5C[C@H](F)C6)nc4c3F)c12", "note": "[Example 62, (Z)-1-(8-(7-(8-ethyl-7-fluoronaphthalen-1-yl)-8-fluoro-2-(((2R,7aS)-2-fluorotetrahydro-1H-pyrrolizin-7a(5H)-yl)methoxy)pyrido[4,3-d]pyrimidin-4-yl)-2-oxa-5,8-diazaspiro[3.5]nonan-5-yl)-2-fluoro-3-(2-methylpyrimidin-4-yl) prop-2-en-1-one]", "values": [{"measurement": "IC50", "value": "< 10", "unit": "nM"}]}, {"smiles": "C=CC(=O)N1CCN(c2nc(OC[C@@]34CCCN3C[C@H](F)C4)nc3c(F)c(-c4cccc5cccc(Cl)c45)ncc23)C[C@]12CCOC2", "note": "[Example 89]", "values": [{"measurement": "IC50", "value": "≥ 500", "unit": "nM"}]}, {"smiles": "Cc1nccc(/C=C/C(=O)N2CCN(c3nc(OC[C@@]45CCCN4C[C@H](F)C5)nc4c(F)c(-c5cc(O)cc(Cl)c5C5CC5)ncc34)CC23COC3)n1", "note": "[Example 41, (E)-1-(8-(7-(3-chloro-2-cyclopropyl-5-hydroxyphenyl)-8-fluoro-2-(((2R,7aS)-2-fluorotetrahydro-1H-pyrrolizin-7a(5H)-yl)methoxy)pyrido[4,3-d]pyrimidin-4-yl)-2-oxa-5,8-diazaspiro[3.5]nonan-5-yl)-3-(2-methylpyrimidin-4-yl) prop-2-en-1-one]", "values": [{"measurement": "IC50", "value": "< 10", "unit": "nM"}]}, {"smiles": "C=CC(=O)N1CCN(c2nc(OC[C@@]34CCCN3C[C@H](F)C4)nc3c(F)c(-c4ccc(F)c5sc(N)nc45)c(C(F)(F)F)cc23)C[C@]12CCOC2", "note": "[Example 92]", "values": [{"measurement": "IC50", "value": "10 to 100", "unit": "nM"}]}, {"smiles": "O=C(/C=C/CN1CC2CCC(C1)O2)N1CCN(c2nc(OC[C@@]34CCCN3C[C@H](F)C4)nc3c(F)c(-c4cccc5ccc(F)c(F)c45)ncc23)CC12COC2", "note": "[Example 22, (E)-4-(8-oxa-3-azabicyclo[3.2.1]octan-3-yl)-1-(8-(7-(7,8-difluoronaphthalen-1-yl)-8-fluoro-2-(((2R,7aS)-2-fluorotetrahydro-1H-pyrrolizin-7a(5H)-yl)methoxy)pyrido[4,3-d]pyrimidin-4-yl)-2-oxa-5,8-diazaspiro[3.5]nonan-5-yl) but-2-en-1-one]", "values": [{"measurement": "IC50", "value": "< 10", "unit": "nM"}]}, {"smiles": "C#Cc1c(F)ccc2cccc(-c3ncc4c(N5CCN(C(=O)/C(F)=C/c6cc(C)nc(C)n6)C6(COC6)C5)nc(OC[C@@]56CCCN5C[C@H](F)C6)nc4c3F)c12", "note": "[Example 63, (Z)-3-(2,6-dimethylpyrimidin-4-yl)-1-(8-(7-(8-ethynyl-7-fluoronaphthalen-1-yl)-8-fluoro-2-(((2R,7aS)-2-fluorotetrahydro-1H-pyrrolizin-7a(5H)-yl)methoxy)pyrido[4,3-d]pyrimidin-4-yl)-2-oxa-5,8-diazaspiro[3.5]nonan-5-yl)-2-fluoroprop-2-en-1-one]", "values": [{"measurement": "IC50", "value": "< 10", "unit": "nM"}]}, {"smiles": "C=CC(=O)N1[C@H](C)CN(c2nc(OC[C@@]34CCCN3C[C@H](F)C4)nc3c(F)c(-c4cccc5ccc(F)c(F)c45)ncc23)CC12COC2", "note": "[Example 64, 1-((R)-8-(7-(7,8-difluoronaphthalen-1-yl)-8-fluoro-2-(((2R,7aS)-2-fluorotetrahydro-1H-pyrrolizin-7a(5H)-yl)methoxy)pyrido[4,3-d]pyrimidin-4-yl)-6-methyl-2-oxa-5,8-diazaspiro[3.5]nonan-5-yl) prop-2-en-1-one]", "values": [{"measurement": "IC50", "value": "< 10", "unit": "nM"}]}, {"smiles": "Cc1nccc(/C=C/C(=O)N2CCN(c3nc(OC[C@@]45CCCN4C[C@H](F)C5)nc4c(F)c(-c5cccc6ccc(F)c(F)c56)ncc34)CC23COC3)n1", "note": "[Example 5, (E)-1-(8-(7-(7,8-difluoronaphthalen-1-yl)-8-fluoro-2-(((2R,7aS)-2-fluorotetrahydro-1H-pyrrolizin-7a(5H)-yl)methoxy)pyrido[4,3-d]pyrimidin-4-yl)-2-oxa-5,8-diazaspiro[3.5]nonan-5-yl)-3-(2-methylpyrimidin-4-yl) prop-2-en-1-one]", "values": [{"measurement": "IC50", "value": "10 to 100", "unit": "nM"}]}]}
